According to US11793849B2, “Method of Chinese herbal medicine extract used for treating multiple diseases caused by drug resistant bacteria infection” (priority 2016, dated 2023):
Like-named read-outs stand apart in the source and are kept apart here.

Tested on: MDRAB
Assay: Checkerboard assay (combined-use MIC, FIC)
Type: cell-based, Acinetobacter baumannii
Details: for FIC, all strains / MIC50 of the antibiotic after combined use / MIC90 of the antibiotic after combined use / reduction of the antibiotic's MIC50 vs single use / reduction of the antibiotic's MIC90 vs single use / share of strains with FIC ≤ 0.5: 20 MDRABs; for MIC: Acinetobacter baumannii, read-out: single-use MIC
Procedure, shortened: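 Checkerboard combinations of S20b and antibiotic run per NCCLS method against ESBL E. coli, MDR A. baumannii and MDR P. aeruginosa.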

[1] = antibiotic with 60% ethanol extract
[2] = antibiotic with 95% ethanol extract
[3] = antibiotic with EA (10% ethanol extract)
[4] = antibiotic with EA (water extract)

C[C@H]1COc2c(N3CCN(C)CC3)c(F)cc3c(=O)c(C(=O)O)cn1c23 [LVX, Levofloxacin]
FIC, all strains [1]: ≤ 2
MIC50 of the antibiotic after combined use [1]: 4 µg/mL
MIC90 of the antibiotic after combined use [1]: 8 µg/mL
reduction of the antibiotic's MIC50 vs single use [1]: 50%
reduction of the antibiotic's MIC90 vs single use [1]: 75%
share of strains with FIC ≤ 0.5 [1]: 5%
FIC, all strains [2]: ≤ 2
MIC50 of the antibiotic after combined use [2]: 4 µg/mL
MIC90 of the antibiotic after combined use [2]: 8 µg/mL
reduction of the antibiotic's MIC50 vs single use [2]: 50%
reduction of the antibiotic's MIC90 vs single use [2]: 75%
share of strains with FIC ≤ 0.5 [2]: 20%
FIC, all strains [3]: ≤ 2
MIC50 of the antibiotic after combined use [3]: 4 µg/mL
MIC90 of the antibiotic after combined use [3]: 8 µg/mL
reduction of the antibiotic's MIC50 vs single use [3]: 50%
reduction of the antibiotic's MIC90 vs single use [3]: 75%
share of strains with FIC ≤ 0.5 [3]: 25%
FIC, all strains [4]: ≤ 2
MIC50 of the antibiotic after combined use [4]: 2 µg/mL
MIC90 of the antibiotic after combined use [4]: 8 µg/mL
reduction of the antibiotic's MIC50 vs single use [4]: 75%
reduction of the antibiotic's MIC90 vs single use [4]: 75%
share of strains with FIC ≤ 0.5 [4]: 35%
MIC (strain A1, EA=10% ethanol extract): 0.5 µg/mL
MIC (strain A1, EA=60% ethanol extract): 0.5 µg/mL
MIC (strain A2, EA=10% ethanol extract): 16 µg/mL
MIC (strain A2, EA=60% ethanol extract): 16 µg/mL
MIC (strain A3, EA=10% ethanol extract): 16 µg/mL
MIC (strain A3, EA=60% ethanol extract): 16 µg/mL
MIC (strain A4, EA=10% ethanol extract): 0.5 µg/mL
MIC (strain A4, EA=60% ethanol extract): 0.5 µg/mL
MIC (strain A5, EA=10% ethanol extract): 4 µg/mL
MIC (strain A5, EA=60% ethanol extract): 4 µg/mL
MIC (strain A6, EA=10% ethanol extract): 8 µg/mL
MIC (strain A6, EA=60% ethanol extract): 8 µg/mL
MIC (strain A7, EA=10% ethanol extract): 8 µg/mL
MIC (strain A7, EA=60% ethanol extract): 8 µg/mL
MIC (strain A8, EA=10% ethanol extract): 4 µg/mL
MIC (strain A8, EA=60% ethanol extract): 4 µg/mL
MIC (strain A9, EA=10% ethanol extract): 4 µg/mL
MIC (strain A9, EA=60% ethanol extract): 4 µg/mL
MIC (strain A10, EA=10% ethanol extract): 32 µg/mL
MIC (strain A10, EA=60% ethanol extract): 32 µg/mL
MIC (strain A11, EA=10% ethanol extract): 4 µg/mL
MIC (strain A11, EA=60% ethanol extract): 4 µg/mL
MIC (strain A12, EA=10% ethanol extract): 32 µg/mL
MIC (strain A12, EA=60% ethanol extract): 32 µg/mL
MIC (strain A13, EA=10% ethanol extract): 32 µg/mL
MIC (strain A13, EA=60% ethanol extract): 32 µg/mL
MIC (strain A14, EA=10% ethanol extract): 16 µg/mL
MIC (strain A14, EA=60% ethanol extract): 16 µg/mL
MIC (strain A15, EA=10% ethanol extract): 32 µg/mL
MIC (strain A15, EA=60% ethanol extract): 32 µg/mL
MIC (strain A16, EA=10% ethanol extract): 8 µg/mL
MIC (strain A16, EA=60% ethanol extract): 8 µg/mL
MIC (strain A17, EA=10% ethanol extract): 16 µg/mL
MIC (strain A17, EA=60% ethanol extract): 16 µg/mL
MIC (strain A18, EA=10% ethanol extract): 8 µg/mL
MIC (strain A18, EA=60% ethanol extract): 8 µg/mL
MIC (strain A19, EA=10% ethanol extract): 16 µg/mL
MIC (strain A19, EA=60% ethanol extract): 16 µg/mL
MIC (strain A20, EA=10% ethanol extract): 16 µg/mL
MIC (strain A20, EA=60% ethanol extract): 16 µg/mL
combined-use MIC (strain A1, EA (10% ethanol extract) + LVX combined): 0.0625 µg/mL
combined-use MIC (strain A1, EA (60% ethanol extract) + LVX combined): 0.0625 µg/mL
combined-use MIC (strain A1, EA (P. clypearia 95% ethanol extract) combined with LVX): 0.25 µg/mL
combined-use MIC (strain A1, EA (water extract) with LVX): 0.0625 µg/mL
combined-use MIC (strain A2, EA (10% ethanol extract) + LVX combined): 8 µg/mL
combined-use MIC (strain A2, EA (60% ethanol extract) + LVX combined): 16 µg/mL
combined-use MIC (strain A2, EA (P. clypearia 95% ethanol extract) combined with LVX): 8 µg/mL
combined-use MIC (strain A2, EA (water extract) with LVX): 16 µg/mL
combined-use MIC (strain A3, EA (10% ethanol extract) + LVX combined): 2 µg/mL
combined-use MIC (strain A3, EA (60% ethanol extract) + LVX combined): 0.0625 µg/mL
combined-use MIC (strain A3, EA (P. clypearia 95% ethanol extract) combined with LVX): 2 µg/mL
combined-use MIC (strain A3, EA (water extract) with LVX): 2 µg/mL
combined-use MIC (strain A4, EA (10% ethanol extract) + LVX combined): 0.0625 µg/mL
combined-use MIC (strain A4, EA (60% ethanol extract) + LVX combined): 0.0625 µg/mL
combined-use MIC (strain A4, EA (P. clypearia 95% ethanol extract) combined with LVX): 0.0625 µg/mL
combined-use MIC (strain A4, EA (water extract) with LVX): 0.0625 µg/mL
combined-use MIC (strain A5, EA (10% ethanol extract) + LVX combined): 2 µg/mL
combined-use MIC (strain A5, EA (60% ethanol extract) + LVX combined): 4 µg/mL
combined-use MIC (strain A5, EA (water extract) with LVX): 1 µg/mL
combined-use MIC (strain A6, EA (10% ethanol extract) + LVX combined): 4 µg/mL
combined-use MIC (strain A6, EA (60% ethanol extract) + LVX combined): 4 µg/mL
combined-use MIC (strain A6, EA (P. clypearia 95% ethanol extract) combined with LVX): 4 µg/mL
combined-use MIC (strain A6, EA (water extract) with LVX): 4 µg/mL
combined-use MIC (strain A7, EA (10% ethanol extract) + LVX combined): 4 µg/mL
combined-use MIC (strain A7, EA (60% ethanol extract) + LVX combined): 4 µg/mL
combined-use MIC (strain A7, EA (P. clypearia 95% ethanol extract) combined with LVX): 4 µg/mL
combined-use MIC (strain A7, EA (water extract) with LVX): 4 µg/mL
combined-use MIC (strain A8, EA (10% ethanol extract) + LVX combined): 2 µg/mL
combined-use MIC (strain A8, EA (60% ethanol extract) + LVX combined): 4 µg/mL
combined-use MIC (strain A8, EA (P. clypearia 95% ethanol extract) combined with LVX): 2 µg/mL
combined-use MIC (strain A8, EA (water extract) with LVX): 4 µg/mL
combined-use MIC (strain A9, EA (10% ethanol extract) + LVX combined): 0.0625 µg/mL
combined-use MIC (strain A9, EA (60% ethanol extract) + LVX combined): 0.0625 µg/mL
combined-use MIC (strain A9, EA (P. clypearia 95% ethanol extract) combined with LVX): 0.0625 µg/mL
combined-use MIC (strain A9, EA (water extract) with LVX): 0.0625 µg/mL
combined-use MIC (strain A10, EA (10% ethanol extract) + LVX combined): 8 µg/mL
combined-use MIC (strain A10, EA (60% ethanol extract) + LVX combined): 0.0625 µg/mL
combined-use MIC (strain A10, EA (P. clypearia 95% ethanol extract) combined with LVX): 2 µg/mL
combined-use MIC (strain A10, EA (water extract) with LVX): 8 µg/mL
combined-use MIC (strain A11, EA (10% ethanol extract) + LVX combined): 2 µg/mL
combined-use MIC (strain A11, EA (60% ethanol extract) + LVX combined): 4 µg/mL
combined-use MIC (strain A11, EA (P. clypearia 95% ethanol extract) combined with LVX): 4 µg/mL
combined-use MIC (strain A11, EA (water extract) with LVX): 2 µg/mL
combined-use MIC (strain A12, EA (10% ethanol extract) + LVX combined): 8 µg/mL
combined-use MIC (strain A12, EA (60% ethanol extract) + LVX combined): 1 µg/mL
combined-use MIC (strain A12, EA (P. clypearia 95% ethanol extract) combined with LVX): 1 µg/mL
combined-use MIC (strain A12, EA (water extract) with LVX): 2 µg/mL
combined-use MIC (strain A13, EA (10% ethanol extract) + LVX combined): 8 µg/mL
combined-use MIC (strain A13, EA (60% ethanol extract) + LVX combined): 0.0625 µg/mL
combined-use MIC (strain A13, EA (P. clypearia 95% ethanol extract) combined with LVX): 2 µg/mL
combined-use MIC (strain A13, EA (water extract) with LVX): 8 µg/mL
combined-use MIC (strain A14, EA (10% ethanol extract) + LVX combined): 8 µg/mL
combined-use MIC (strain A14, EA (60% ethanol extract) + LVX combined): 8 µg/mL
combined-use MIC (strain A14, EA (P. clypearia 95% ethanol extract) combined with LVX): 8 µg/mL
combined-use MIC (strain A14, EA (water extract) with LVX): 8 µg/mL
combined-use MIC (strain A15, EA (10% ethanol extract) + LVX combined): 16 µg/mL
combined-use MIC (strain A15, EA (60% ethanol extract) + LVX combined): 0.0625 µg/mL
combined-use MIC (strain A15, EA (P. clypearia 95% ethanol extract) combined with LVX): 2 µg/mL
combined-use MIC (strain A15, EA (water extract) with LVX): 0.0625 µg/mL
combined-use MIC (strain A16, EA (10% ethanol extract) + LVX combined): 4 µg/mL
combined-use MIC (strain A16, EA (60% ethanol extract) + LVX combined): 4 µg/mL
combined-use MIC (strain A16, EA (P. clypearia 95% ethanol extract) combined with LVX): 4 µg/mL
combined-use MIC (strain A16, EA (water extract) with LVX): 2 µg/mL
combined-use MIC (strain A17, EA (10% ethanol extract) + LVX combined): 4 µg/mL
combined-use MIC (strain A17, EA (60% ethanol extract) + LVX combined): 4 µg/mL
combined-use MIC (strain A17, EA (P. clypearia 95% ethanol extract) combined with LVX): 4 µg/mL
combined-use MIC (strain A17, EA (water extract) with LVX): 8 µg/mL
combined-use MIC (strain A18, EA (10% ethanol extract) + LVX combined): 4 µg/mL
combined-use MIC (strain A18, EA (60% ethanol extract) + LVX combined): 4 µg/mL
combined-use MIC (strain A18, EA (P. clypearia 95% ethanol extract) combined with LVX): 4 µg/mL
combined-use MIC (strain A18, EA (water extract) with LVX): 1 µg/mL
combined-use MIC (strain A19, EA (10% ethanol extract) + LVX combined): 2 µg/mL
combined-use MIC (strain A19, EA (60% ethanol extract) + LVX combined): 8 µg/mL
combined-use MIC (strain A19, EA (P. clypearia 95% ethanol extract) combined with LVX): 8 µg/mL
combined-use MIC (strain A19, EA (water extract) with LVX): 8 µg/mL
combined-use MIC (strain A20, EA (10% ethanol extract) + LVX combined): 4 µg/mL
combined-use MIC (strain A20, EA (60% ethanol extract) + LVX combined): 8 µg/mL
combined-use MIC (strain A20, EA (P. clypearia 95% ethanol extract) combined with LVX): 8 µg/mL
combined-use MIC (strain A20, EA (water extract) with LVX): 4 µg/mL
combined-use MIC (strain AS, EA (P. clypearia 95% ethanol extract) combined with LVX): 2 µg/mL
